{
  "source": "paper PMC6874530",
  "about": "“Structural analysis identifies an escape route from the adverse lipogenic effects of liver X receptor ligands” (Communications Biology, 2019)",
  "key": {"[1]": {"test_system": "plasma triglycerides", "assay": "plasma TG induction in C57BL/6 mice vs plasma compound concentration (log-linear model)", "format": "in vivo, mouse", "conditions": "mouse, in vivo", "description": "Male C57BL/6JOlaHsd mice were retrieved from Harlan Laboratories (Horst, The Netherlands) around 7 weeks of age. […] Mice were given ad libitum access to water and standard rodent chow during the studies.\nCompounds were given daily by oral gavage, 5 ml kg^−1, at doses ranging from 0.1 to 100 μmol kg^−1 of body weight for 4 days. Animals were terminated 3 h after the last dose.\n(§1) At termination, the whole-blood volume was drawn from isoflurane-anesthetized mice via an incision in the carotid artery into EDTA blood tubes (S-Monovette®, EDTA KE/1.3 mL, Sarstedt, Nümbrecht, Germany or BD Microtainers®, Benton, Dickinson and Company, Franklin Lakes, New Jersey, USA). Blood samples were placed on ice and centrifuged within an hour (15 min, 2500 × g, 4 °C or 5 min, 16000 × g, 4 °C). The plasma was then dispensed in separate tubes and kept at −80 °C for later analysis of compound concentration and TG levels. For the analysis of intestinal Abca1 transcript levels, a 3–5-mm long segment of the duodenum was excised and cleared from any gut contents. Tissues were instantly snap frozen in liquid nitrogen and stored at −80 °C.\nPlasma triglyceride levels were analyzed by using the Triglycerides/Glycerol Blanked reagent kit (Roche Diagnostics GMBH, Mannheim, Germany). Samples were measured on an ABX Pentra 400 instrument (Horiba Medical, Irvine, California, USA) or Cobas Mira plus instrument (Roche Diagnostics Corporation, Indianapolis, USA). […] Absorbance was measured by using a Tecan Infinite M200 plate reader (Tecan Austria GmbH, Salzburg, Austria).\nAbout 25 µL of plasma was precipitated with 150 µL of cold acetonitrile containing 0.2% formic acid. […] Sample analysis was performed by using a reversed-phase high-pressure liquid chromatography system coupled to a Quattro Ultima triple-quadrupole mass spectrometer (Waters, UK). A rapid 2-min 4–90% (vol/vol) acetonitrile (containing 0.2% formic acid) gradient was used for chromatographic separation.\nTo rank the compounds, the drug concentration (C2) needed to generate a twofold increase in plasma TG was estimated by rearranging Eq. (2):3 C2=exp^2fold−BL−1/m^1/γ"}, "[2]": {"biological_target": "T1, LXRβ LBD (Homo sapiens, UniProt P55055)", "T1 sequence (P55055 215-460 limits assumed)": "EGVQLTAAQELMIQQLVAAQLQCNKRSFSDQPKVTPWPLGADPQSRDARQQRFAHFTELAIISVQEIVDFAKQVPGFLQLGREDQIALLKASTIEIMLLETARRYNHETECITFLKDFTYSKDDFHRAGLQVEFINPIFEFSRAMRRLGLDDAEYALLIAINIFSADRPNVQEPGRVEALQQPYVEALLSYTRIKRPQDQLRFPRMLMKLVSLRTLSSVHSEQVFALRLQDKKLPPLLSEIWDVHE", "assay": "biochemical", "conditions": "Receptor-binding affinity pKi LXRβ, value (SD, n independent experiments)", "quoted_text": "The compounds were run in triplicate (binding assay) or in quadruplicate (transactivation assay). Standard deviations are indicated for individual experiments run more than once."}, "[3]": {"test_system": "Abca1 mRNA in intestine", "assay": "intestinal Abca1 mRNA induction in C57BL/6 mice (Emax model)", "format": "in vivo, mouse", "conditions": "for ED50: Mus musculus", "description": "All procedures involving animals were conducted in accordance with accepted standards of good animal practice and approved by the respective local animal ethics committees (Gothenburg region Local Ethics Review Committee on Animal experiments and University of Virginia Animal Care and Use Committee). Male C57BL/6JOlaHsd mice were retrieved from Harlan Laboratories (Horst, The Netherlands) around 7 weeks of age. In the studies with BMS-852907, male 8-week C57BL/6J mice (Jackson Laboratories) were used. Mice were given ad libitum access to water and standard rodent chow during the studies.\nSolid compounds were solubilized in PEG400/Ethanol/Solutol/Water solution (36.3/9.1/4.6/50%). Compounds were given daily by oral gavage, 5 ml kg^−1, at doses ranging from 0.1 to 100 μmol kg^−1 of body weight for 4 days. Animals were terminated 3 h after the last dose.\nas §1\nSnap-frozen intestinal tissues were quickly disrupted in QIAzol® (Qiagen, Hilden, Germany) or PureZOL™ (Bio-Rad Laboratories, Hercules, California, USA) by using a bead tissue homogenizer. Lysates were mixed with chloroform and centrifuged at 6000 × g for 15 min at 4 °C. Total RNA was purified from the upper aqueous phase on the ABI PRISM™ 6100 Nucleic Acid PrepStation (Applied Biosystems, Foster City, USA) or by using the RNeasy kit® (QIAGEN Sciences Inc., Germantown, Maryland, USA) including on-column DNase treatment by using the respective manufacturer’s protocol and reagents. Concentration of total RNA was determined on a NanoDrop™ ND-100 Spectrophotometer (Saveen Werner, Lögstrup, Sweden). The RNA templates were transferred to cDNA by reverse transcription by using the High-Capacity cDNA Reverse Transcription Kit (Applied Biosystems, Foster City, USA) according to the manufacturer’s protocol. Mouse ATP-binding cassette subfamily A member 1 (Abca1) was analyzed by using the forward primer 5′-[…]-3′, reverse primer 5′-[…]-3′, and the dual-labeled probe 5′-6FAM-[…]-TAMRA-3′. Mouse ribosomal protein large P0 (Rplp0, 36b4) was analyzed by using the forward primer 5′-[…]-3′, reverse primer 5′-[…]-3′, and the FAM-labeled probe 5′-[…]-TAMRA-3′. In the study with BMS-852907, RT-qPCR reactions were carried out in separate triplicate wells for Abca1 and Rplp0, respectively, by using 20 ng of cDNA template, 385 nM of the above-mentioned primers, and iQ™ SYBR Green Supermix (Bio-Rad, Hercules, California, USA) on a Bio-Rad MyiQ instrument (Bio-Rad, Hercules, California, USA). In the other studies, 400 nM Abca1 forward and reverse primers, 200 nM Abca1 probe, 200 nM Rplp0 forward and reverse primers, and 100 nM Rplp0 probe were mixed with 15 ng of cDNA template and TaqMan™ Gene Expression Master Mix (Applied Biosystems, Foster City, USA). The RT-qPCR reactions were performed on a 7500 Real-time PCR system (Applied Biosystems, Foster City, USA). Cycle threshold values (Ct) were retrieved from the instrument software. Relative changes in mRNA expression were calculated by using the comparative cycle method (2^−ΔΔCt). […]"}, "[4]": {"biological_target": "T2, LXRα (Homo sapiens, UniProt Q13133)", "T2 construct": "expression vectors pSG5-Gal4-LXRα LBD or pSG5-Gal4-LXRβ LBD; expressed in transfected cells; host or cells: U2OS osteosarcoma cells", "T2 sequence (Q13133 209-447 limits assumed)": "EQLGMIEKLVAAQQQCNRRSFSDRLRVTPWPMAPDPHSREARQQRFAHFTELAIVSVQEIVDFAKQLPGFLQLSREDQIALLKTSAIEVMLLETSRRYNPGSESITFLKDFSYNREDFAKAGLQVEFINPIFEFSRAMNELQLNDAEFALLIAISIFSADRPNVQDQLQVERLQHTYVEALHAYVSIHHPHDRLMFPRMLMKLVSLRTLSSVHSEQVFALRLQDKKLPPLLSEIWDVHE", "assay": "Gal4 one hybrid reporter gene (transactivation) assay in U2OS cells, LXRα", "format": "cell-based", "conditions": "value (SD, n)", "description": "Transactivation assays were performed in U2OS osteosarcoma cells (ATCC, USA). […] Ligands were added at ten different concentrations 2 h post transfection and the luciferase activity was measured after 40 h."}},
  "note": "Read-outs that look alike come from different tables or passages of the source.",
  "data": [
    {"smiles": "O=C1C(Cc2ccccc2)=C(NCCCCc2ccccc2)C(=O)N1Cc1ccccc1", "note": "[AZ8]", "values": [
      {"measurement": "TG induction in plasma Attributed class", "setting": "[1]", "result": "Non-lipogenic"},
      {"measurement": "Ki", "setting": "[2]", "result": 47.9, "unit": "nM"},
      {"measurement": "class of intestinal Abca1 induction", "setting": "[3]", "result": "low ABCA1 inducers"},
      {"measurement": "ED50", "setting": "[3]; po, read-out: Abca1 mRNA induction in intestine Attributed class", "result": "> 11.3", "unit": "µmol/kg"},
      {"measurement": "ED50", "setting": "[3]; oral gavage daily for 4 days, C57BL/6 mice, (% RSE), read-out: Abca1 mRNA induction in intestine ED50", "result": 341, "unit": "µmol/kg"},
      {"measurement": "EC50", "setting": "[4]; U2OS cells, Gal4-LXRα LBD, read-out: LXRα transactivation pEC50 (converted)", "result": 1740, "unit": "nM"},
      {"measurement": "Emax", "setting": "[4]; U2OS, 40 h, maximal activation compared with a reference full agonist, read-out: LXRα transactivation Agonist efficacy, %", "result": 91.5, "unit": "%"}
    ]}
  ]
}
